Usually IC50 stands for the concentration that gives 50% inhibition.

Data on 2 compounds can be found in paper PMC4628118 (Frontiers in Microbiology, 2015).

Common to all, as to assay: biochemical
One experiment addresses WT HIV-1 PR (NL4-3) (Human immunodeficiency virus type 1 group M subtype B, UniProt P12497). The procedure: (§1) In vitro transcription and cell-free protein synthesis were performed using WEPRO7240 wheat germ extract (CellFree Sciences, Yokohama, Japan). Transcription was performed using SP6 RNA polymerase, as described previously ([Matsunaga et al., 2014]). The translation reaction was performed in bilayer mode with slight modifications. Briefly, translation mixture (forming the bottom layer) consisted of 10 μl of each mRNA (usually 30–35 μg), 10 μl of WEPRO7240 (CellFree Sciences, Yokohama, Japan), and 0.8 μl of 1 μg/μl creatine kinase (Roche Diagnostics K. K., Tokyo, Japan) in 20.8 μl of SUB-AMIX® (CellFree Sciences, Yokohama, Japan). SUB-AMIX (206 μl) was placed on top of the translation mixture, thus forming the top layer. After incubation at 16°C for 16 h, synthesized proteins were confirmed by immunoblotting. For biotinylation of the substrate, 1 μl (50 ng) of crude biotin ligase (BirA) expressed in a wheat germ cell-free system was added to the bottom layer, and 0.5 μM (final concentration) of D-biotin (Nacalai Tesque, Inc., Kyoto, Japan) was added to both the top and bottom layers, as described previously ([Matsuoka et al., 2010]). As an initial experimental test, radiolabeled protein was produced by cell-free synthesis to confirm the yield and solubility of generated proteins as described previously ([Kamura et al., 2005]). In actual drug susceptibility testing, quantitations of synthesized HIV-1 PR proteins were performed by densitometric scanning of Coomassie Brilliant Blue (CBB)-stained bands as compared with purified HIV-1 PR or bovine serum albumin (BSA) ([Madin et al., 2000]).
(§2) CFDSA was performed using cell-free–synthesized PR, substrate peptide, and the AlphaScreen® system (PerkinElmer, Boston, MA, USA). […] The mixture was incubated at 37°C for 30 min in a 384-well Alphaplate (PerkinElmer). The enzymatic reaction was initiated by the addition of 5 μl of 0.25 μM cell-free–synthesized GST-p2/p7-bls substrate to each well, followed by incubation at 37°C for 2 h. Detection of PR activity was performed essentially as described in the AlphaScreen IgG detection kit instruction manual (PerkinElmer). Briefly, 10 μl of detection mixture containing 20 mM Tris-HCl (pH 7.5), 0.2 mM DTT, 5 mM MgCl2, 5 μg/ml anti-GST antibody, 1 mg/ml BSA, 0.1 μl streptavidin-coated donor beads, and 0.1 μl anti-IgG acceptor beads were added to each well of the 384-well plate, followed by incubation at 23°C for 1 h in the dark. Luminescence signals were analyzed with the AlphaScreen detection program using the EnSpire software (PerkinElmer), and light intensities in the presence of the serially diluted inhibitors were used to calculate their IC50 values. PI-resistance levels were determined by comparing the IC50 values of drug-resistant PR with those of NL4-3 PR. The results for each PR were normalized based on protein productivity, as determined by liquid scintillation counting. IC50 values were calculated using XLfit (ID BUSINESS SOLUTIONS, Guildford, UK). The criteria for CFDSA measurement of resistance were as follows: fold resistance value (FRV) = IC50 ratio of test PR/IC50 ratio of WT PR.
(§3) For the quantitative and high-throughput measurement of HIV-1 PR activity using AlphaScreen technology, we designed a reporter substrate comprising a partial Gag p2-p7 junction peptide flanked by N-terminal GST and C-terminal biotin binding sequence (GST-p2/p7-biotin) as described in Figure 2A.

The target of experiment [1] is drug-resistant HIV-1 PR (PR02-A) harboring L10I/G48S/I54V/V82F/L90M mutations (Human immunodeficiency virus type 1 group M subtype B, UniProt P12497, G536S/I542V/L498I/L578M/V570F). The procedure:
as §1, §2, §3

For experiment [2], the system named is drug-resistant HIV-1 PR (PR02-A) harboring L10I/G48S/I54V/V82F/L90M mutations. Conditions: IC50 of drug-resistant PR divided by IC50 of WT PR. As for the experimental part: as §1, §2, §3

Consider `CC(C)CN(C[C@@H](O)[C@H](Cc1ccccc1)NC(=O)O[C@H]1CCOC1)S(=O)(=O)c1ccc(N)cc1` [APV, amprenavir], for which the IC50 is 23.2 nM against WT HIV-1 PR (NL4-3) and 93.5 nM in experiment [1]. In addition, the “fold-resistance to WT PR (FRV, DR/WT)” value in experiment [2] is 4.0 fold.

Turning to `COC(=O)N[C@H](C(=O)N[C@@H](Cc1ccccc1)[C@@H](O)CN(Cc1ccc(-c2ccccn2)cc1)NC(=O)[C@@H](NC(=O)OC)C(C)(C)C)C(C)(C)C` [ATV, atazanavir], the half-inhibitory concentration (IC50) against WT HIV-1 PR (NL4-3) was found to be 17.8 nM; in experiment [1] it was 137 nM. Besides, the “fold-resistance to WT PR (FRV, DR/WT)” value in experiment [2] came to 7.7 fold.
